Laboratory results reported in ChEMBL document CHEMBL4402531, “Recent advances in α,β-unsaturated carbonyl compounds as mitochondrial toxins” (Eur J Med Chem, 2019).

Experiments:
PC-3 [1] = experiment: Cytotoxicity against human PC3 cells assessed as reduction in cell viability; assay type: functional, cell-based
HL-60 = experiment: Cytotoxicity against human HL60 cells assessed as reduction in cell viability; assay type: functional, cell-based
K562 [2] = experiment: Induction of apoptosis in human K562 cells; assay type: functional, cell-based
K562 [3] = experiment: Cell cycle arrest in human K562 cells assessed as accumulation at G0 phase; assay type: functional, cell-based
K562 [4] = experiment: Cell cycle arrest in human K562 cells assessed as accumulation at G1 phase; assay type: functional, cell-based
HCT-116 = experiment: Cytotoxicity against human HCT116 cells assessed as reduction in cell viability after 72 hrs by MTT assay; assay type: functional, cell-based; details: HCT-116, 72 h
CNE-2 = experiment: Cytotoxicity against human CNE2 cells assessed as reduction in cell viability after 48 hrs; assay type: functional, cell-based; details: CNE-2, 48 h
CNE = experiment: Cytotoxicity against human CNE1 cells assessed as reduction in cell viability after 48 hrs; assay type: functional, cell-based
MGC-803 = experiment: Cytotoxicity against human MGC803 cells assessed as reduction in cell viability after 24 hrs by MTT assay; assay type: functional, cell-based; details: MGC-803, 24 h
SGC-7901 = experiment: Cytotoxicity against human SGC7901 cells assessed as reduction in cell viability after 24 hrs by MTT assay; assay type: functional, cell-based; details: SGC-7901, 24 h
HGC-27 = experiment: Cytotoxicity against human HGC27 cells assessed as reduction in cell viability after 24 hrs by MTT assay; assay type: functional, cell-based; details: HGC-27, 24 h
[5] = target: RAF proto-oncogene serine/threonine-protein kinase (Homo sapiens) (UniProt P04049); experiment: Inhibition of c-RAF (unknown origin) phosphorylation relative to control; details: concentration not given here
Sequence of RAF proto-oncogene serine/threonine-protein kinase (Homo sapiens) (P04049 whole entry): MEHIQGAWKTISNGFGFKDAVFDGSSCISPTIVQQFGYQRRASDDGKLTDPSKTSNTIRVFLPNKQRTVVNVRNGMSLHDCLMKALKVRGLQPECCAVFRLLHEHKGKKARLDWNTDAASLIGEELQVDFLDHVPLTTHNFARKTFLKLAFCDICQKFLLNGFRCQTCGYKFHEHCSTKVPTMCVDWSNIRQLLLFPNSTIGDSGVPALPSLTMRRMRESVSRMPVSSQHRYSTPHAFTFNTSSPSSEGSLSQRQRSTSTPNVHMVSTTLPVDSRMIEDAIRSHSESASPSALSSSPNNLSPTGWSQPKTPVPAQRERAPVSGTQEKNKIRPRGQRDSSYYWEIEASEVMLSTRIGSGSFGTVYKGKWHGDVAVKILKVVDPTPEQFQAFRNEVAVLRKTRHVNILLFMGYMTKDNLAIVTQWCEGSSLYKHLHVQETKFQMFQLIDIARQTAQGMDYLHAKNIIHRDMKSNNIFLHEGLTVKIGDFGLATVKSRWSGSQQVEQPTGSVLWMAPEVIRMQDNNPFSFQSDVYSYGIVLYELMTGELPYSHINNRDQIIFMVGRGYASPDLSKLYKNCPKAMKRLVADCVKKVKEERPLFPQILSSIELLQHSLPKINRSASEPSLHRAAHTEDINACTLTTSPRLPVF

Homo sapiens = species: Homo sapiens; experiment: Inhibition of ERK (unknown origin) phosphorylation relative to control; details: concentration not given here
[6] = target: Dual specificity mitogen-activated protein kinase kinase; MEK1/2 (Homo sapiens) (UniProt P36507+Q02750); experiment: Inhibition of MEK (unknown origin) phosphorylation relative to control; assay type: protein assay; details: concentration not given here
Sequence of Dual specificity mitogen-activated protein kinase kinase; MEK1/2 (Homo sapiens) (P36507 whole entry, looked up): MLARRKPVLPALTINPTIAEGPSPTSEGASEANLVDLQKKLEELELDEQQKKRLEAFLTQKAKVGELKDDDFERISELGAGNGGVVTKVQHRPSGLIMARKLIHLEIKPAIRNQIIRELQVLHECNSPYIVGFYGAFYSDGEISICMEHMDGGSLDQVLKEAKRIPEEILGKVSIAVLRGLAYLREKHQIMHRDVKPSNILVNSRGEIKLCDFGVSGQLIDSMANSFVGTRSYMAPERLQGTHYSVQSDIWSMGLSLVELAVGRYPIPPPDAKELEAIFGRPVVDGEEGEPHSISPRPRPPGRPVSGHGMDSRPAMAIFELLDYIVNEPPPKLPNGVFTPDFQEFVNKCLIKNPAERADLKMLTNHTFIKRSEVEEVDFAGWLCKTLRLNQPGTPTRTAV
Sequence of Dual specificity mitogen-activated protein kinase kinase; MEK1/2 (Homo sapiens) (Q02750 whole entry, looked up): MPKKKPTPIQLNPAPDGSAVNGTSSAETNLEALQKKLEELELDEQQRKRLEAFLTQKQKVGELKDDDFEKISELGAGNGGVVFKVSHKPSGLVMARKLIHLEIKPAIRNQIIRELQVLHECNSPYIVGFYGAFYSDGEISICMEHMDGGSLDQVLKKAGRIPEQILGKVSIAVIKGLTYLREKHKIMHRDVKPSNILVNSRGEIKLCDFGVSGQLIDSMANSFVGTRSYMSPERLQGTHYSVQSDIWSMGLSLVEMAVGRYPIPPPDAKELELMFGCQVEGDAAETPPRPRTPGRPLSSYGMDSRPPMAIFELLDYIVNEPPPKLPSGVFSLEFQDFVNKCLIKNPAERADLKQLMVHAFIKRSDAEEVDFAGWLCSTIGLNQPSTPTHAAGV

MG-63 = experiment: Cytotoxicity against human MG63 cells assessed as reduction in cell viability after 48 hrs; assay type: functional, cell-based; details: MG-63, 48 h
U2OS = experiment: Cytotoxicity against human U2OS cells assessed as reduction in cell viability after 48 hrs; assay type: functional, cell-based
MCF7 [7] = experiment: Cytotoxicity against human MCF7 cells assessed as reduction in cell viability; assay type: functional, cell-based
HeLa [8] = experiment: Cytotoxicity against human HeLa cells assessed as reduction in cell viability; assay type: functional, cell-based
Ca-Ski = experiment: Cytotoxicity against human CaSki cells assessed as reduction in cell viability after 72 hrs; assay type: functional, cell-based
PC-12 = experiment: Cytotoxicity against rat PC12 cells assessed as reduction in cell viability after 48 hrs by MTT assay; assay type: functional, cell-based; details: PC-12, 48 h
HeLa [9] = experiment: Cytotoxicity against human HeLa cells assessed as reduction in cell viability after 72 hrs; assay type: functional, cell-based
SiHa [10] = experiment: Cytotoxicity against human SiHa cells assessed as reduction in cell viability after 72 hrs; assay type: functional, cell-based
L02 = experiment: Cytotoxicity against human LO2 cells assessed as reduction in cell viability after 48 hrs by MTT assay; assay type: functional, cell-based; details: L02, 48 h
HeLa [11] = experiment: Cytotoxicity against human HeLa cells assessed as reduction in cell viability after 72 hrs by MTT assay; assay type: functional, cell-based
SiHa [12] = experiment: Cytotoxicity against human SiHa cells assessed as reduction in cell viability after 72 hrs by MTT assay; assay type: functional, cell-based
C-33-A = experiment: Cytotoxicity against human C33A cells assessed as reduction in cell viability after 72 hrs; assay type: functional, cell-based
NCI-H28 = experiment: Cytotoxicity against human NCI-H28 cells assessed as reduction in cell viability after 24 to 48 hrs by MTS assay; assay type: functional, cell-based
HK-2 = experiment: Cytotoxicity against human HK2 cells assessed as reduction in cell viability after 24 to 48 hrs by MTT assay; assay type: cell-based
SiHa [13] = experiment: Cytotoxicity against human SiHa cells assessed as reduction in cell viability after 24 hrs by MTT assay; assay type: functional, cell-based
HeLa [14] = experiment: Cytotoxicity against human HeLa cells assessed as reduction in cell viability after 24 hrs by MTT assay; assay type: functional, cell-based
MSTO-211H = experiment: Cytotoxicity against human MSTO-211H cells assessed as reduction in cell viability after 24 to 48 hrs by MTS assay; assay type: functional, cell-based
WI-38 = experiment: Cytotoxicity against human WI38 cells assessed as reduction in cell viability after 24 to 48 hrs by MTT assay; assay type: cell-based
MDA-MB-231 = experiment: Cytotoxicity against human MDA-MB-231 cells assessed as reduction in cell viability after 24 to 48 hrs by MTS assay; assay type: functional, cell-based
MCF7 [15] = experiment: Cytotoxicity against human MCF7 cells assessed as reduction in cell viability after 24 to 48 hrs by MTS assay; assay type: functional, cell-based
HepG2 = experiment: Growth inhibition of human HepG2 cells; assay type: functional, cell-based
MCF7 [16] = experiment: Cytotoxicity against human MCF7 cells assessed as reduction in cell viability at 0.01 uM after 48 hrs by fluorescence assay relative to control; assay type: functional
PC-3 [17] = experiment: Cytotoxicity against human PC3 cells assessed as reduction in cell viability relative to control; assay type: functional
LNCaP = experiment: Cytotoxicity against human LNCAP cells assessed as reduction in cell viability relative to control; assay type: functional
LNCaP C4-2 = experiment: Cytotoxicity against human C4-2 cells assessed as reduction in cell viability relative to control; assay type: functional
MCF7 [18] = experiment: Cytotoxicity against human MCF7 cells assessed as reduction in cell viability at 5 uM after 48 hrs by fluorescence assay relative to control; assay type: functional
DU-145 = experiment: Cytotoxicity against human DU145 cells assessed as reduction in cell viability relative to control; assay type: functional

`COc1ccc(C(=O)/C=C/c2ccccc2)c(O)c1` gave an IC50 (PC-3 [1]) of 8.08 to 13.8 µM.

`CCn1cc(C(=O)O)c(=O)c2c3c(ccc21)NC(=O)/C3=C1/C(=O)Nc2ccc(Cl)cc21` showed an IC50 (HL-60) of 4.27 µM.

`COc1cc(/C=C/C(=O)C(=Cc2ccncc2)C(=O)/C=C/c2ccc(O)c(OC)c2)ccc1O` was tested, and the IC50 (K562 [2]) was 0.4 to 3.2 µM, the IC50 (K562 [3]) was 0.6 µM and the IC50 (K562 [4]) was 0.4 to 3.2 µM.

Compound `CC(=O)Oc1ccc(C(=O)/C=C/c2ccccc2)c(O)c1` has an IC50 (PC-3 [1]) of 8.08 to 13.8 µM.

Compound `COc1cccc(OC)c1C(=O)/C=C/c1c2ccccc2nc2ccccc12` has an IC50 (HCT-116) of 4.2 µM.

`CCOc1ccc(C(=O)/C=C/c2ccccc2)c(O)c1` showed an IC50 (PC-3 [1]) of 8.08 to 13.8 µM.

`C=C1C(=O)[C@]23[C@H](O)[C@@H]1CC[C@H]2[C@]12CCCC(C)(C)[C@H]1[C@H](O)[C@@]3(O)OC2` gave an IC50 (CNE-2) of 1.52 µM and an IC50 (CNE) of 1.26 µM.

For `CCCOc1ccc(C(=O)/C=C/c2ccccc2)c(O)c1`, the IC50 (PC-3 [1]) was 8.08 to 13.8 µM.

`COc1ccc(Br)cc1C(=O)/C=C/c1ccc(S(C)(=O)=O)cc1` showed an IC50 (MGC-803) of 3.57 to 5.61 µM, an IC50 (SGC-7901) of 3.57 to 5.61 µM and an IC50 (HGC-27) of 3.57 to 5.61 µM.

Compound `O=C(/C=C/c1ccc(O)cc1)/C(C(=O)Nc1ccccc1)=C(O)/C=C/c1ccc(O)cc1` has an inhibition [5] of 93%, an inhibition (Homo sapiens) of 87% and an inhibition [6] of 91%.

`O=C(/C=C/c1ccccc1)c1ccc(O)cc1O` [2',4'-DIHYDROXYCHALCONE] was tested, and the IC50 (PC-3 [1]) was 8.08 to 13.8 µM.

`O=C(/C=C(\O)c1ccccc1)c1ccccc1O` [2',beta-DIHYDROXYCHALCONE] was tested, and the IC50 (MG-63) was 23.8 µM and the IC50 (U2OS) was 19.6 µM.

In the case of `COc1cc(O)c(C(=O)/C=C/c2ccccc2)c2c1C=CC(C)(CCC=C(C)C)O2` (stereo not given) [BOESENBERGIN A], the IC50 (MCF7 [7]) is reported as 20 µM and the IC50 (HeLa [8]) is reported as 20 µM.

`O=C(/C=C/c1ccc(O)cc1)c1ccc(O)cc1O` [ISOLIQUIRITIGENIN] gave an IC50 (Ca-Ski) of 39.1 µM, an IC50 (PC-12) of 17.8 µM and an IC50 (HeLa [9]) of 58.1 µM. The IC50 (SiHa [10]) was 53.8 µM, the IC50 (L02) was over 1000 µM and the IC50 (HeLa [11]) was 58.1 µM. For the same compound, the IC50 (SiHa [12]) was 53.8 µM and the IC50 (C-33-A) was 32.8 µM.

`C=CC(C)(C)c1cc(/C=C/C(=O)c2ccc(O)cc2)c(OC)cc1O` [LICOAGROCHACONE A] was tested, and the IC50 (NCI-H28) was 30 µM, the IC50 (HK-2) was 88.7 µM and the IC50 (SiHa [13]) was 42.2 µM. For the same compound, the IC50 (HeLa [14]) was 48.5 µM, the IC50 (MSTO-211H) was 26 µM and the IC50 (WI-38) was 90.2 µM. For the same compound, the IC50 (MDA-MB-231) was 22 µM and the IC50 (MCF7 [15]) was 22 µM.

Compound `CCCCC/C=C/C(=O)CCc1ccc(O)c(OC)c1` [SHOGAOL] has an IC50 (HepG2) of 88 µM.

For `COc1cc(O)c(CC=C(C)C)c(O)c1C(=O)/C=C/c1ccc(O)cc1` [XANTHOHUMOL], the Activity (MCF7 [16]) was 39.6%, the Activity (PC-3 [17]) was 42% and the Activity (LNCaP) was 41%. The Activity (LNCaP C4-2) was 30%, the Activity (MCF7 [18]) was -57.3% and the Activity (DU-145) was 38%.
